Reference: patent US7423032B2, “Method for treating severe heart failure and medicament therefor” (Otsuka Pharmaceutical Co., Ltd., priority 2003, dated 2008)

Key:
Assay type in all cases: in vivo, human patients
[1] = Mean change in body weight from baseline in patients treated with (A); design: Mean change in body weight from baseline: unit not given here
Description: (§1) To patients of severe heart failure (i.e., patient in acute heart failure or chronic heart failure in acute exacerbation, New York Heart Association Class III and IV) was administered 5-hydroxy-7-chloro-1-[2-methyl-4-(2-methylbenzoylamino)benzoyl]-2,3,4,5-tetrahydro-1H-benzazepine at a dose of 30, 60 or 90 mg/day for a period of 60 days, which period began from the duration of hospitalization to after being discharged from hospital (details thereof are shown in Table 1).
(§2) As to the statistical analysis, the data in Table 2 was analyzed by ANOVA method, and the data in Tables 3 and 4 were analyzed by ANCOVA method, and the data in Table 5 was analyzed by Log-Rank test.
(§3) When the dosages in this experiment were converted to a daily dose per 1 kg of body weight, they were 0.371±0.096 mg/kg (n=77) in the 30 mg-treated group, 0.769±0.205 mg/kg (n=83) in the 60 mg-treated group, and 1.149±0.283 mg/kg (n=76) in the 90 mg-treated group (all in mean±SD).

[2] = test system: patients of severe heart failure; assay: Mortality of the patients treated with (A); details: for Mortality Event Rate (%): placebo 8.7%; for Number off Death: on therapy up to 60 days
Description: as §1, §2

[3] = Serum sodium concentration in patients of hyponatremia at baseline treated with (A); details: for Serum sodium concentration: mean ± SD
Description: as §1
As to the statistical analysis, the data in Table 2 was analyzed by ANOVA method, and the data in Tables 3 and 4 were analyzed by ANCOVA method, and the data in Table 5 was analyzed by Log-Rank test. […]

[4] = Discontinued cases due to adverse experiences in patients treated with (A); details: for Discontinuation due to Adverse Experience Event Rate (%): placebo 15.0%
Description: as §1
(§4) In addition, in the group treated with the lowest dose of 30 mg, the urinary frequency event rate as an adverse experience was lower (Table 6), and the discontinued rate due to adverse experiences was lower (Table 7), as compared with the data of the groups treated with higher doses.

[5] = Adverse events (urinary frequency) in patients treated with (A); details: for Urinary Frequency Event Rate (%): placebo 1.3%
Description: as §1, §4

[6] = Total urine output in patients treated with (A), placebo-controlled Phase IIB study; design: Total urine output: unit not given here
Description: as §1, §2, §3

[7] = 30 mg/day oral, 78 patients randomized
[8] = 60 mg/day oral, 84 patients randomized
[9] = 90 mg/day oral, 77 patients randomized
[10] = 30 mg group compared with groups treated with higher doses

Cc1ccccc1C(=O)Nc1ccc(C(=O)N2CCCC(O)c3cc(Cl)ccc32)c(C)c1 (stereo not drawn) [(A), 5-hydroxy-7-chloro-1-[2-methyl-4-(2-methylbenzoylamino)benzoyl]-2,3,4,5-tetrahydro-1H-benzazepine]
body weight (in words) ([1]; 30 mg-treated group): decreased | Mean change in body weight from baseline ([1]; 30 mg/day oral, Day 1, mean ± SD, n=76): −2.14 ± 2.63 | Mean change in body weight from baseline ([1]; 30 mg/day oral, Day 2, mean ± SD, n=63): −3.49 ± 3.80 | Mean change in body weight from baseline ([1]; 30 mg/day oral, Day 3, mean ± SD, n=49): −4.78 ± 4.14 | Mean change in body weight from baseline ([1]; 30 mg/day oral, Discharge, mean ± SD, n=76): −4.37 ± 4.69 | Mean change in body weight from baseline ([1]; 30 mg/day oral, Last Visit, mean ± SD, n=76): −2.42 ± 5.37 | Mean change in body weight from baseline ([1]; 30 mg/day oral, outpatient Week 1, mean ± SD, n=65): −2.71 ± 4.93 | Mean change in body weight from baseline ([1]; 30 mg/day oral, outpatient Week 7, mean ± SD, n=54): −2.12 ± 5.16 | Mean change in body weight from baseline ([1]; 60 mg/day oral, Day 1, mean ± SD, n=76): −2.10 ± 1.80 | Mean change in body weight from baseline ([1]; 60 mg/day oral, Day 2, mean ± SD, n=65): −3.03 ± 2.48 | Mean change in body weight from baseline ([1]; 60 mg/day oral, Day 3, mean ± SD, n=47): −3.93 ± 3.33 | Mean change in body weight from baseline ([1]; 60 mg/day oral, Discharge, mean ± SD, n=82): −4.60 ± 4.67 | Mean change in body weight from baseline ([1]; 60 mg/day oral, Last Visit, mean ± SD, n=82): −3.60 ± 6.38 | Mean change in body weight from baseline ([1]; 60 mg/day oral, outpatient Week 1, mean ± SD, n=59): −2.73 ± 5.45 | Mean change in body weight from baseline ([1]; 60 mg/day oral, outpatient Week 7, mean ± SD, n=54): −2.87 ± 6.67 | Mean change in body weight from baseline ([1]; 90 mg/day oral, Day 1, mean ± SD, n=74): −1.90 ± 2.87 | Mean change in body weight from baseline ([1]; 90 mg/day oral, Day 2, mean ± SD, n=61): −2.84 ± 3.16 | Mean change in body weight from baseline ([1]; 90 mg/day oral, Day 3, mean ± SD, n=45): −2.65 ± 4.22 | Mean change in body weight from baseline ([1]; 90 mg/day oral, Discharge, mean ± SD, n=76): −3.75 ± 4.18 | Mean change in body weight from baseline ([1]; 90 mg/day oral, Last Visit, mean ± SD, n=76): −2.39 ± 5.20 | Mean change in body weight from baseline ([1]; 90 mg/day oral, outpatient Week 1, mean ± SD, n=53): −3.23 ± 4.46 | Mean change in body weight from baseline ([1]; 90 mg/day oral, outpatient Week 7, mean ± SD, n=53): −2.23 ± 5.19 | mortality rate vs control group (in words) ([2]; 30 mg-treated group, entire period, Log-Rank test): significantly lower | Mortality Event Rate (%) [2, 7]: 3.8% | Number off Death [2, 7]: 3 | Mortality Event Rate (%) [2, 8]: 9.5% | Number off Death [2, 8]: 8 | Mortality Event Rate (%) [2, 9]: 2.5% | Number off Death [2, 9]: 2 | Serum sodium concentration ([3]; 30 mg group, Baseline, patients of hyponatremia at baseline, n=15): 132.13 ± 3.44 mEq/L | Serum sodium concentration ([3]; 30 mg/day oral, Day 1, patients of hyponatremia at baseline, n=15): 136.00 ± 3.96 mEq/L | Serum sodium concentration ([3]; 30 mg/day oral, Day 2, patients of hyponatremia at baseline, n=11): 135.09 ± 5.07 mEq/L | Serum sodium concentration ([3]; 30 mg/day oral, Day 3, patients of hyponatremia at baseline, n=8): 135.13 ± 5.38 mEq/L | Serum sodium concentration ([3]; 30 mg/day oral, Discharge, patients of hyponatremia at baseline, n=15): 136.13 ± 4.61 mEq/L | Serum sodium concentration ([3]; 30 mg/day oral, Last Visit, patients of hyponatremia at baseline, n=15): 137.00 ± 5.04 mEq/L | Serum sodium concentration ([3]; 30 mg/day oral, outpatient Week 1, patients of hyponatremia at baseline, n=12): 138.25 ± 4.22 mEq/L | Serum sodium concentration ([3]; 30 mg/day oral, outpatient Week 7, patients of hyponatremia at baseline, n=10): 137.60 ± 4.65 mEq/L | Serum sodium concentration ([3]; 60 mg group, Baseline, patients of hyponatremia at baseline, n=22): 130.86 ± 4.00 mEq/L | Serum sodium concentration ([3]; 60 mg/day oral, Day 1, patients of hyponatremia at baseline, n=22): 135.77 ± 6.16 mEq/L | Serum sodium concentration ([3]; 60 mg/day oral, Day 2, patients of hyponatremia at baseline, n=17): 137.29 ± 3.02 mEq/L | Serum sodium concentration ([3]; 60 mg/day oral, Day 3, patients of hyponatremia at baseline, n=13): 138.62 ± 4.44 mEq/L | Serum sodium concentration ([3]; 60 mg/day oral, Discharge, patients of hyponatremia at baseline, n=22): 137.18 ± 4.56 mEq/L | Serum sodium concentration ([3]; 60 mg/day oral, Last Visit, patients of hyponatremia at baseline, n=22): 136.18 ± 5.94 mEq/L | Serum sodium concentration ([3]; 60 mg/day oral, outpatient Week 1, patients of hyponatremia at baseline, n=16): 136.88 ± 5.82 mEq/L | Serum sodium concentration ([3]; 60 mg/day oral, outpatient Week 7, patients of hyponatremia at baseline, n=11): 139.36 ± 4.76 mEq/L | Serum sodium concentration ([3]; 90 mg group, Baseline, patients of hyponatremia at baseline, n=15): 133.07 ± 2.52 mEq/L | Serum sodium concentration ([3]; 90 mg/day oral, Day 1, patients of hyponatremia at baseline, n=15): 137.13 ± 4.82 mEq/L | Serum sodium concentration ([3]; 90 mg/day oral, Day 2, patients of hyponatremia at baseline, n=15): 137.00 ± 4.60 mEq/L | Serum sodium concentration ([3]; 90 mg/day oral, Day 3, patients of hyponatremia at baseline, n=11): 136.45 ± 4.59 mEq/L | Serum sodium concentration ([3]; 90 mg/day oral, Discharge, patients of hyponatremia at baseline, n=15): 137.13 ± 3.02 mEq/L | Serum sodium concentration ([3]; 90 mg/day oral, Last Visit, patients of hyponatremia at baseline, n=15): 136.60 ± 5.17 mEq/L | Serum sodium concentration ([3]; 90 mg/day oral, outpatient Week 1, patients of hyponatremia at baseline, n=8): 136.13 ± 3.64 mEq/L | Serum sodium concentration ([3]; 90 mg/day oral, outpatient Week 7, patients of hyponatremia at baseline, n=6): 138.00 ± 5.73 mEq/L | serum sodium concentration (in words) ([3]; patients of hyponatremia at baseline (less than 136 mEq/L)): increase of serum sodium concentration | discontinued rate due to adverse experiences (in words) [4, 10]: lower | Discontinued cases due to Adverse Experience (number) [4, 7]: 14 | Discontinuation due to Adverse Experience Event Rate (%) [4, 7]: 17.9% | Discontinued cases due to Adverse Experience (number) [4, 8]: 25 | Discontinuation due to Adverse Experience Event Rate (%) [4, 8]: 29.8% | Discontinued cases due to Adverse Experience (number) [4, 9]: 17 | Discontinuation due to Adverse Experience Event Rate (%) [4, 9]: 22.1% | urinary frequency event rate as an adverse experience (in words) [5, 10]: lower | Adverse Event Urinary Frequency (number of patients) ([5]; 30 mg/day oral, 78 patients): 1 | Urinary Frequency Event Rate (%) ([5]; 30 mg/day oral, 78 patients): 1.3% | Adverse Event Urinary Frequency (number of patients) ([5]; 60 mg/day oral, 84 patients): 3 | Urinary Frequency Event Rate (%) ([5]; 60 mg/day oral, 84 patients): 3.6% | Adverse Event Urinary Frequency (number of patients) ([5]; 90 mg/day oral, 76 patients): 4 | Urinary Frequency Event Rate (%) ([5]; 90 mg/day oral, 76 patients): 5.3% | total urine output (in words) ([6]; 30 mg-treated group): increased | Total urine output ([6]; 30 mg/day oral, Day 1, mean ± SD, n=73): 4056.16 ± 2310.23 | Total urine output ([6]; 30 mg/day oral, Day 2, mean ± SD, n=67): 3905.61 ± 1942.03 | Total urine output ([6]; 30 mg/day oral, Day 3, mean ± SD, n=52): 3579.04 ± 1867.86 | Total urine output ([6]; 30 mg/day oral, Day 6, mean ± SD, n=33): 3146.67 ± 1618.09 | Total urine output ([6]; 30 mg/day oral, Day 7, mean ± SD, n=16): 2662.81 ± 1507.51 | Total urine output ([6]; 30 mg/day oral, Day 9, mean ± SD, n=5): 2908.00 ± 475.59 | Total urine output ([6]; 60 mg/day oral, Day 1, mean ± SD, n=82): 4175.15 ± 2695.44 | Total urine output ([6]; 60 mg/day oral, Day 2, mean ± SD, n=74): 3699.26 ± 2094.02 | Total urine output ([6]; 60 mg/day oral, Day 3, mean ± SD, n=54): 3420.41 ± 1902.77 | Total urine output ([6]; 60 mg/day oral, Day 6, mean ± SD, n=32): 3684.56 ± 2472.45 | Total urine output ([6]; 60 mg/day oral, Day 7, mean ± SD, n=17): 4230.00 ± 1691.43 | Total urine output ([6]; 60 mg/day oral, Day 9, mean ± SD, n=11): 3753.18 ± 2415.48 | Total urine output ([6]; 90 mg/day oral, Day 1, mean ± SD, n=73): 4127.27 ± 2050.81 | Total urine output ([6]; 90 mg/day oral, Day 2, mean ± SD, n=64): 3961.73 ± 2129.11 | Total urine output ([6]; 90 mg/day oral, Day 3, mean ± SD, n=50): 4069.32 ± 2306.07 | Total urine output ([6]; 90 mg/day oral, Day 6, mean ± SD, n=30): 4188.23 ± 2275.15 | Total urine output ([6]; 90 mg/day oral, Day 7, mean ± SD, n=17): 3915.12 ± 2101.53 | Total urine output ([6]; 90 mg/day oral, Day 9, mean ± SD, n=7): 2421.43 ± 1391.12
